The results in this text go back to patent US7273604B2, “Anti-asthmatic combinations comprising surface active phospholipids” (Britannia Pharmaceuticals Limited, priority 1998, dated 2007).

In the assay the test system is bronchial epithelium. In words: Binding (adsorption) of 14C-labelled DPPC to bronchial epithelium sections, liquid scintillation counting. Also on record: species or system porcine. The procedure:
• L-α-Phosphatidylcholine, 1,2-di[1-^14 C]palmitoyl in Toluene:Ethanol (1:1 v/v), 114 mCi/mmol, 50 μCi in 2 mL (CFA6O4 B36, Amersham) • L-α-Phosphatidylcholine, dipalmitoyl (C16:0) (P-6267, Sigma) • DL-α-Phosphatidyl-DL-glycerol, dipalmitoyl (C16:0) (P-5650, Sigma) • Egg Phosphatidylglycerol (Batch 24756, Macfarlan Smith, Ltd.) • Sodium Chloride, 0.9%, B.P. (Baxter Healthcare) • Calcium Chloride (C-4901, Sigma) • Toluene (T-4428, Sigma) • Ethanol, AnalaR (10107.7Y, BDH) • NCS-II Tissue Solubilizer, 0.5N Solution (NNCS-502), Amersham) • OCS Organic Counting Scintillant (NOCS104, Amersham) In preparation for the dispersions in which the epithelium would be incubated, stock solutions of the phospholipid components were prepared on the first day of Run 1. These solutions were as follows: • L-α-DPPC, 2.4 mg. mL^−1 in toluene:ethanol, 1:1 • DL-α-DPPG, 3.0 mg. mL^−1 in toluene:ethanol, 1:1 • Egg PG, 3.0 mg. mL^−1 in toluene:ethanol, 1:1 All of the above solutions were stored at 4° C. in glass vials, the threads of which were sealed with teflon tape to minimise evaporation of the solvent. Each glass vial was then placed inside a second, tightly capped glass vial. These solutions were used for each of the five runs in the trial. A solution of 200 mg. L^−1 CaCl^2 in 0.9% saline was also prepared on the first day of Run 2 and was used in each of Runs 2 to 5. […]
Four dispersions were prepared on the first day of each run. […] In addition, Group 2 received 5.5 μL (16.5 μg) DL-α-DPPG, while the same quantity of egg PG was added to Group 3. […] When the number of sections was increased, the volumes of all components were increased accordingly, keeping all quantities in the same proportions as above. […]

Structures are written as SMILES. Where “and” joins values, the source holds several entries; their conditions need not be identical. Equal entries are not always repeated.

With `CCCCCCCCCCCCCCCC(=O)OCC(COP(=O)(O)OCC(O)CO)OC(=O)CCCCCCCCCCCCCCC` (racemic) [DPPG, DL-α-Phosphatidyl-DL-glycerol, dipalmitoyl (C16:0)], where the note is “DPPC in the presence of the named phosphatidyl glycerol, 1:1, compared with DPPC only”, the “binding of DPPC to bronchial epithelium (in words)” value is reported as “increased binding of DPPC to bronchial epithelium”.
Turning to `CCCCCCCCCCCCCCCC(=O)OC[C@H](COP(=O)([O-])OCC[N+](C)(C)C)OC(=O)CCCCCCCCCCCCCCC` [DPPC, dipalmitoyl phosphatidyl choline], the “Total DPPC Adsorbed to Bronchial Epithelium” value (individual sections, incubation at 37° C. for 24 h in 0.9% saline dispersion, rinsed 20 times) was 0.280 μg/cm^2 and 0.528 μg/cm^2 and 0.192 μg/cm^2 and 0.340 μg/cm^2 and 0.321 μg/cm^2 and 0.341 μg/cm^2 and 0.299 μg/cm^2 and 0.219 μg/cm^2 and 0.116 μg/cm^2 and 0.276 μg/cm^2. Moreover, the “Total DPPC Adsorbed to Bronchial Epithelium, Mean” value (mean of n 10 sections, incubation at 37° C. for 24 h in 0.9% saline dispersion, rinsed 20 times) is on record as 0.291 μg/cm^2.
